Assay results taken from patent publication US11903981B2, “Use of Anaerofustis stercorihominis in preventing and/or treating metabolic diseases” (priority 2018, dated 2024).
Marks after values point to notes of the source that are not given here.

Legend:
AM25-6 = assay: Antibiotic sensitivity of AM25-6 by the drug sensitive paper method; assay type: cell-based, Anaerofustis stercorihominis; conditions: antibiotic susceptibility papers on AM25-6 plates, 37° C., 48 hours
Method: The sensitivity of AM25-6 to 20 common antibiotics was tested by the drug sensitive paper method. 100 μl of AM25-6 bacterial solution cultured to the logarithmic phase was spread plated. Antibiotic susceptibility papers (purchased from Hangzhou Microbial Reagent Co. LTD) were affixed on the medium surface of plates, cultured at 37° C. for 48 hours, after which the size of inhibition zone was measured.

[1] = test system: T2D mice model (C57bL/6 mice); assay: T2D animal model, fasting blood glucose; assay type: in vivo
Method: (§1) The T2D animal model is constructed by using C57bL/6 mice (purchased from Guangdong Medical Experimental Animal Center) at 8 weeks old and 20±2 g of body weight. The mice were housed in a specific pathogen free (SPF) environment and adaptively fed for 1 week, followed by grouping and modeling. The T2D animal model is induced by injection of streptozotocin (STZ) along with feeding high-fat feed, and the mice having fasting blood glucose (FBG) reaching to 10 mM/L can be used as a T2D mice model. Fifty mice selected for experiments are randomly divided into 5 groups.
(§2) Bacterial agent group 1: the T2D mice model was administered with the AM25-6 bacterial solution (1×10^8 cfu/ml) by gavage;
(§3) Bacterial agent group 2: the T2D mice model was administered with the DSM 17244 bacterial solution (1×10^8 cfu/ml) by gavage;
(§4) Bacterial agent group 3: the T2D mice model was administered with the DSM 28733 bacterial solution (1×10^8 cfu/ml) by gavage;
(§5) Metformin treatment group: the T2D mice model was treated with the positive drug metformin.
(§6) The experiment was carried out based on the different groups. After the construction of T2D mice model (i.e., FBG>10), the treatment was started and lasted for 2 months. The food intake amount and body weight of mice were recorded daily. Blood of mice was collected from the tail vein every week for detection of fasting blood glucose. The oral glucose tolerance test (OGTT) of mice was measured at week 4 of treatment and at the end of the experiment.

[2] = test system: T2D mice model (C57bL/6 mice); assay: T2D animal model (STZ plus high-fat feed), body weight; assay type: in vivo; conditions: gavage
Method: as §1, §2, §3, §4, §5, §6

[3] = test system: T2D mice model (C57bL/6 mice); assay: T2D animal model, oral glucose tolerance test (OGTT); assay type: in vivo
Method: as §1, §6
The results of oral glucose tolerance test (OGTT) for mice shown in Table 8 indicate that the blood glucose of mice reaches the highest level (i.e., 17.8-23.1 mmol/L) at 30 minutes upon administration of glucose by gavage. […] From the perspective of overall glucose tolerance process, it can be seen that Anaerofustis stercorihominis can effectively ameliorate glucose intolerance in diabetic mice.

| Compound | Diameter of inhibition zone (AM25-6) | also measured |
| --- | --- | --- |
| Cc1nnc(SCC2=C(C(=O)O)N3C(=O)[C@@H](NC(=O)Cn4cnnn4)[C@H]3SC2)s1 [Cefazolin] | 2.6 cm | – |
| CN(C)C(=N)N=C(N)N [Metformin, metformin, reference compound] | – | Fasting blood glucose, Week 1 ([1]; Week 1): 16.8 mmol/L; Fasting blood glucose, Week 3 ([1]; Week 3): 16.2 mmol/L; Fasting blood glucose, Week 5 ([1]; Week 5): 13.9 mmol/L; Fasting blood glucose, Week 7 ([1]; Week 7): 11.5* mmol/L; Fasting blood glucose, Week 9 ([1]; Week 9): 10.1** mmol/L; Body weight ([2]; Week 1): 20.33 g; Body weight ([2]; Week 3): 22.36 g; Body weight ([2]; Week 5): 24.63 g; Body weight ([2]; Week 7): 25.86 g; Body weight ([2]; Week 9, *P<0.05 relative to model group): 26.53* g; Blood glucose in OGTT, 0 minute ([3]; 0 minute after glucose by gavage): 9.3 mmol/L; Blood glucose in OGTT, 30 minutes ([3]; 30 minutes after glucose by gavage): 18.6 mmol/L; Blood glucose in OGTT, 60 minutes ([3]; 60 minutes after glucose by gavage): 16.4 mmol/L; Blood glucose in OGTT, 90 minutes ([3]; 90 minutes after glucose by gavage): 11.7* mmol/L; Blood glucose in OGTT, 120 minutes ([3]; 120 minutes after glucose by gavage): 10.3 mmol/L |
| CC1(C)S[C@@H]2[C@H](NC(=O)C(C(=O)O)c3ccccc3)C(=O)N2[C@H]1C(=O)O (some centres unmarked) [Carbenicillin] | >4.0 cm | – |
| CN(C)c1ccc(O)c2c1C[C@H]1C[C@H]3[C@H](N(C)C)C(O)=C(C(N)=O)C(=O)[C@@]3(O)C(O)=C1C2=O [Minocin (Minocycline), Minocycline] | 2.6 cm | – |
| CC1(C)S[C@@H]2[C@H](NC(=O)[C@H](N)c3ccccc3)C(=O)N2[C@H]1C(=O)O [Ampicillin] | >4.0 cm | – |
| Penicillin | 3.0 cm | – |
| NCC[C@H](O)C(=O)N[C@@H]1C[C@H](N)[C@@H](O[C@H]2O[C@H](CN)[C@@H](O)[C@H](O)[C@H]2O)[C@H](O)[C@H]1O[C@H]1O[C@H](CO)[C@@H](O)[C@H](N)[C@H]1O [Amikacin] | 1.5 cm | – |
| Neomycin | 1.0 cm | – |
| CCN1CCN(C(=O)N[C@@H](C(=O)N[C@@H]2C(=O)N3C(C(=O)O)=C(CSc4nnnn4C)CS[C@H]23)c2ccc(O)cc2)C(=O)C1=O [Cefoperazone] | >4.0 cm | – |
| CO/N=C(\C(=O)N[C@@H]1C(=O)N2C(C(=O)O)=C(CSc3nc(=O)c(=O)[nH]n3C)CS[C@H]12)c1csc(N)n1 [Ceftriaxone Sodium] | >4.0 cm | – |
| CO/N=C(\C(=O)N[C@@H]1C(=O)N2C(C(=O)O)=C(COC(N)=O)CS[C@H]12)c1ccco1 [Cefuroxime] | 3.0 cm | – |
| CN(C)[C@@H]1C(O)=C(C(N)=O)C(=O)[C@@]2(O)C(O)=C3C(=O)c4c(O)cccc4[C@@](C)(O)[C@H]3C[C@@H]12 [Tetracycline] | 0.9 cm | – |
| NC[C@H]1O[C@H](O[C@H]2[C@H](O)[C@@H](O[C@H]3O[C@H](CO)[C@@H](O)[C@H](N)[C@H]3O)[C@H](N)C[C@@H]2N)[C@H](O)[C@@H](O)[C@@H]1O [Kanamycin] | 1.8 cm | – |
| C[C@H]1c2cccc(O)c2C(=O)C2=C(O)[C@]3(O)C(=O)C(C(N)=O)=C(O)[C@@H](N(C)C)[C@@H]3[C@@H](O)[C@@H]21 [Doxycycline] | 2.0 cm | – |
| CCN1CCN(C(=O)N[C@@H](C(=O)N[C@@H]2C(=O)N3[C@@H]2SC(C)(C)[C@@H]3C(=O)O)c2ccccc2)C(=O)C1=O [Piperacillin] | 3.0 cm | – |
| CC1=C(C(=O)O)N2C(=O)[C@@H](NC(=O)[C@H](N)C3=CCC=CC3)[C@H]2SC1 [Cefradine] | 2.0 cm | – |
| Cc1onc(-c2ccccc2)c1C(=O)N[C@@H]1C(=O)N2[C@@H]1SC(C)(C)[C@@H]2C(=O)O [Oxacillin] | 1.0 cm | – |
| CC1=C(C(=O)O)N2C(=O)[C@@H](NC(=O)[C@H](N)c3ccccc3)[C@H]2SC1 [Cefalexin] | 2.0 cm | – |
| Gentamicin | 2.0 cm | – |
| CC[C@H]1OC(=O)[C@H](C)[C@@H](O[C@H]2C[C@@](C)(OC)[C@@H](O)[C@H](C)O2)[C@H](C)[C@@H](O[C@@H]2O[C@H](C)C[C@H](N(C)C)[C@H]2O)[C@](C)(O)C[C@@H](C)C(=O)[C@H](C)[C@@H](O)[C@]1(C)O [Erythromycin] | 2.0 cm | – |
| CC(C)(O/N=C(\C(=O)N[C@@H]1C(=O)N2C(C(=O)[O-])=C(C[n+]3ccccc3)CS[C@H]12)c1csc(N)n1)C(=O)O [Fortum (Ceftazidime), Ceftazidime] | >4.0 cm | – |
